Legend:
[1] = molecular target: T1, Mps-1 kinase (Homo sapiens, UniProt P33981); experiment: Mps-1 kinase assay with 10 μM ATP (TR-FRET)
T1 sequence (P33981 1-857): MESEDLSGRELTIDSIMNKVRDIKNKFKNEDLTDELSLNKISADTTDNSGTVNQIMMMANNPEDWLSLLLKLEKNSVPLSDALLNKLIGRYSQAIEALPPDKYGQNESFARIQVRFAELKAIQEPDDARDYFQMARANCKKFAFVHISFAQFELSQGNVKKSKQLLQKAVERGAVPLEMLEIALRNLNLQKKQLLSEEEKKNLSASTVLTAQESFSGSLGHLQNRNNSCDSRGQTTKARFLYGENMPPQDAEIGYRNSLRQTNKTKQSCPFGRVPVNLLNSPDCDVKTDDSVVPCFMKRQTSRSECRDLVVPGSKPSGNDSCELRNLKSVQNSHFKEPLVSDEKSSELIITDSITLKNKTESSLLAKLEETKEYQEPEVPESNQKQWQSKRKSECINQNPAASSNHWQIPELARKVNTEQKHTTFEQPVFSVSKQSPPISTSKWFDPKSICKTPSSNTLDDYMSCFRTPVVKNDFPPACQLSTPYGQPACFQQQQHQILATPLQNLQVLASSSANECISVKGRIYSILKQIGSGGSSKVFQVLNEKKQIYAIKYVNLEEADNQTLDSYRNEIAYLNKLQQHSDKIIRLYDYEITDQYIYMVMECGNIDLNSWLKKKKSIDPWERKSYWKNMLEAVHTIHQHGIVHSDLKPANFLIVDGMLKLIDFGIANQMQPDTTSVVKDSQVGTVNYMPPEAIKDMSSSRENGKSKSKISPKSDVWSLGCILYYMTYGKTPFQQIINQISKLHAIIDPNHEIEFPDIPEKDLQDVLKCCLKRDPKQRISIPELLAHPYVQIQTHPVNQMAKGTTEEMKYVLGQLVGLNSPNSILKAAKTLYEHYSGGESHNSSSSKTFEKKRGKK

[2] = molecular target: T1, Mps-1 kinase; experiment: Mps-1 kinase assay with 2 mM ATP (TR-FRET)

| IC50 [1] | IC50 [2] | Compound |
| --- | --- | --- |
| ≤ 1 nM | 1.6 nM | CS(=O)(=O)c1ccc(Nc2nc3ccc(-c4ccc(NC(=O)Cc5ccc(F)cc5)cc4)cn3n2)c(OC2CC2)c1 [Example 01.37, N-[4-(2-{[2-(cyclopropyloxy)-4-(methylsulfonyl)phenyl]amino}[1,2,4]-triazolo[1,5-α]pyridin-6-yl)phenyl]-2-(4-fluorophenyl)acetamide] |
| ≤ 1 nM | 2 nM | Cc1cc(C(=O)NCC(F)(F)F)ccc1Nc1nc2ccc(-c3ccc(C(=O)NCc4ccc(F)cc4)cc3)cn2n1 [Example 12.66, 4-[(6-{4-[(4-fluorobenzyl)-carbamoyl]phenyl}[1,2,4]triazolo [1,5-a]pyridin-2-yl)-amino]-3-methyl-N-(2,2,2-trifluoroethyl)benzamide] |
| ≤ 1 nM | 3.5 nM | COc1cc(C(=O)N(C)C)ccc1Nc1nc2ccc(-c3ccc(C(=O)NCc4ccc(F)cc4)cc3)cn2n1 [Example 12.46, 4-[(6-{4-[(4-fluorobenzyl)-carbamoyl]phenyl}[1,2,4]triazolo [1,5-a]pyridin-2-yl)-amino]-3-methoxy-N,N-dimethylbenzamide] |
| ≤ 1 nM | 6.9 nM | CCN(Cc1ccc(Nc2nc3ccc(-c4ccc(C(=O)NCc5ccc(F)cc5)cc4)cn3n2)c(OC)c1)C(C)(C)CO [Example 12.53, 4-{2-[(4-{[ethyl(1-hydroxy-2-methylpropan-2-yl)amino]-methyl}-2-methoxyphenyl)-amino][1,2,4]triazolo[1,5-a]pyridin-6-yl}-N-(4-fluoro-benzyl)benzamide] |
| ≤ 1 nM | 2.1 nM | COc1ccc(Nc2nc3ccc(-c4ccc(NC(=O)Cc5ccc(F)cc5)cc4)cn3n2)c(C)c1 [Example 12.35, 2-(4-fluorophenyl)-N-(4-{2-[(4-methoxy-2-methyl-phenyl)amino][1,2,4]-triazolo[1,5-a]pyridin-6-yl}-phenyl)acetamide] |
| ≤ 1 nM | 9.9 nM | COc1cc(S(C)(=O)=O)ccc1Nc1nc2ccc(-c3ccc(NC(=O)Cc4ccc(F)c(C)c4)cc3)cn2n1 [Example 12.40, 2-(4-fluoro-3-methylphenyl)-N-[4-(2-{[2-methoxy-4-(methylsulfonyl)phenyl]-amino}[1,2,4]triazolo[1,5-a]pyridin-6-yl)phenyl]-acetamide] |
| ≤ 1 nM | 5 nM | NC(=O)c1ccc(Nc2nc3ccc(-c4ccc(C(=O)NCc5ccc(F)cc5)cc4)cn3n2)c(OC(F)(F)F)c1 [Example 12.60, 4-[(6-{4-[(4-fluorobenzyl)-carbamoyl]phenyl}[1,2,4]triazolo [1,5-K]pyridin-2-yl)-amino]-3-(trifluoro-methoxy)benzamide] |
| ≤ 1 nM | 8.8 nM | COc1ccc(Nc2nc3ccc(-c4ccc(C(=O)NCc5ccc(F)cc5)cc4)cn3n2)c(C)c1 [Example 12.71, N-(4-fluorobenzyl)-4-{2-[(4-methoxy-2-methylphenyl)-amino][1,2,4]triazolo[1,5-a]pyridin-6-yl}benzamide] |
| ≤ 1 nM | ≤ 1 nM | COc1cc(C(=O)NCCF)ccc1Nc1nc2ccc(-c3ccc(NC(=O)Cc4ccc(F)cc4)cc3)cn2n1 [Example 12.05, N-(2-fluoroethyl)-4-{[6-(4-{[(4-fluorophenyl)acetyl]-amino}phenyl)[1,2,4]-triazolo[1,5-a]pyridin-2-yl]amino}-3-methoxy-benzamide] |
| ≤ 1 nM | – | Cc1cc(C(=O)NCC(F)(F)F)ncc1Nc1nc2ccc(-c3ccc(NC(=O)Cc4ccc(F)cc4)cc3)cn2n1 [Example 12.38, 5-{[6-(4-{[(4-fluorophenyl)-acetyl]amino}phenyl)[1,2,4]triazolo[1,5-a]pyridin-2-yl]amino}-4-methyl-N-(2,2,2-trifluoroethyl)-pyridine-2-carboxamide] |
| ≤ 1 nM | 1.6 nM | CCNC(=O)c1ccc(Nc2nc3ccc(-c4ccc(C(=O)NCc5ccc(F)cc5)cc4)cn3n2)c(C)c1 [Example 12.64, N-ethyl-4-[(6-{4-[(4-fluoro-benzyl)carbamoyl]phenyl}-[1,2,4]triazolo[1,5-a]pyridin-2-yl)amino]-3-methyl-benzamide] |
| ≤ 1 nM | 8.5 nM | COc1cc([S@@+](C)[O-])c(F)cc1Nc1nc2ccc(-c3ccc(NC(=O)Cc4ccc(F)cc4)cc3)cn2n1 (stereo in doubt) [Example 12.14, N-[4-(2-{[5-fluoro-2-methoxy-4-(methylsulfinyl)-phenyl]amino}[1,2,4]-triazolo[1,5-a]pyridin-6-yl)-phenyl]-2-(4-fluorophenyl)-acetamide] |

Further lines, the molecule ahead of its results:

| Compound | IC50 [1] | IC50 [2] |
| --- | --- | --- |
| Cc1cc(N(C)C)ccc1Nc1nc2ccc(-c3ccc(NC(=O)Cc4ccc(F)cc4)cc3)cn2n1 [Example 12.36, N-[4-(2-{[4-(dimethylamino)-2-methylphenyl]-amino}[1,2,4]triazolo[1,5-a]pyridin-6-yl)phenyl]-2-(4-fluorophenyl)acetamide] | ≤ 1 nM | 3.5 nM |
| COc1cc(C(=O)NCC(F)(F)F)ccc1Nc1nc2ccc(-c3ccc(C(=O)NCc4ccc(F)cc4F)cc3)cn2n1 [Example 12.79, 4-[(6-{4-[(2,4-difluoro-benzyl)carbamoyl]phenyl}-[1,2,4]triazolo[1,5-a]pyridin-2-yl)amino]-3-methoxy-N-(2,2,2-trifluoro-ethyl)benzamide] | ≤ 1 nM | 23 nM |
| COc1cc(S(C)(=O)=O)ccc1Nc1nc2ccc(-c3ccc(C(=O)NCc4ccc(Cl)cc4)cc3)cn2n1 [Example 12.73, N-(4-chlorobenzyl)-4-(2-{[2-methoxy-4-(methylsulfonyl)-phenyl]amino}[1,2,4]triazolo [1,5-a]pyridin-6-yl)-benzamide] | ≤ 1 nM | 16 nM |
| COc1cc(C(=O)NCCN(C)C)ccc1Nc1nc2ccc(-c3ccc(NC(=O)Cc4ccc(F)cc4)cc3)cn2n1 [Example 12.10, N-[2-(dimethylamino)ethyl]-4-{[6-(4-{[(4-fluorophenyl)-acetyl]amino}phenyl)[1,2,4]triazolo[1,5-a]pyridin-2-yl]amino}-3-methoxy-benzamide] | ≤ 1 nM | ≤ 1 nM |
| C[S@@+]([O-])c1ccc(Nc2nc3ccc(-c4ccc(NC(=O)Cc5ccc(F)cc5)cc4)cn3n2)c(OCC(F)(F)F)c1 (stereo in doubt) [Example 12.24, 2-(4-fluorophenyl)-N-[4-(2-{[4-(methylsulfinyl)-2-(2,2,2-trifluoroethoxy)-phenyl]amino}[1,2,4]-triazolo[1,5-a]pyridin-6-yl)phenyl]acetamide] | ≤ 1 nM | ≤ 1 nM |
| CCOc1cc(S(C)(=O)=O)ccc1Nc1nc2ccc(-c3ccc(NC(=O)Cc4ccc(F)cc4)cc3)cn2n1 [Example 01.32, N-[4-(2-{[2-ethoxy-4-(methylsulfonyl)phenyl]amino}[1,2,4]triazolo[1,5-α]-pyridin-6-yl)phenyl]-2-(4-fluorophenyl)acetamide] | ≤ 1 nM | ≤ 1 nM |
| Cc1cc(S(C)(=O)=O)ccc1Nc1nc2ccc(-c3ccc(C(=O)NCc4ccc(F)cc4)cc3)cn2n1 [Example 12.68, N-(4-fluorobenzyl)-4-(2-{[2-methyl-4-(methylsulfonyl)-phenyl]amino}[1,2,4]triazolo [1,5-a]pyridin-6-yl)-benzamide] | ≤ 1 nM | 1.9 nM |
| O=C(Cc1ccc(F)cc1)Nc1ccc(-c2ccc3nc(Nc4ccc(F)cc4OC(F)F)nn3c2)cc1 [Example 12.27, N-[4-(2-{[2-(difluoro-methoxy)-4-fluorophenyl]-amino}[1,2,4]triazolo[1,5-a]pyridin-6-yl)phenyl]-2-(4-fluorophenyl)acetamide] | ≤ 1 nM | 9 nM |
| Cc1cc(NS(C)(=O)=O)ccc1Nc1nc2ccc(-c3ccc(C(=O)NCc4ccc(F)cc4)cc3)cn2n1 [Example 12.70, N-(4-fluorobenzyl)-4-[2-({2-methyl-4-[(methylsulfonyl)-amino]phenyl}amino)[1,2,4]triazolo [1,5-a]pyridin-6-yl]-benzamide] | ≤ 1 nM | 9.5 nM |
| Cc1cc(C(=O)NCCF)ccc1Nc1nc2ccc(-c3ccc(NC(=O)Cc4ccc(F)cc4)cc3)cn2n1 [Example 12.30, N-(2-fluoroethyl)-4-{[6-(4-{[(4-fluorophenyl)acetyl]-amino}phenyl)[1,2,4]-triazolo[1,5-a]pyridin-2-yl]amino}-3-methyl-benzamide] | ≤ 1 nM | 4.3 nM |
| COc1cc(C(N)=O)ccc1Nc1nc2ccc(-c3ccc(C(=O)NCc4ccc(F)cc4)cc3)cn2n1 [Example 12.43, 4-[(6-{4-[(4-fluorobenzyl)-carbamoyl]phenyl}[1,2,4]triazolo [1,5-a]pyridin-2-yl)-amino]-3-methoxy-benzamide] | ≤ 1 nM | ≤ 1 nM |
| COc1cc(CO)ccc1Nc1nc2ccc(-c3ccc(C(=O)NCc4ccc(F)cc4)cc3)cn2n1 [Example 12.85, N-(4-fluorobenzyl)-4-(2-{[4-(hydroxymethyl)-2-methoxyphenyl]amino}-[1,2,4]triazolo[1,5-α]pyridin-6-yl)benzamide] | ≤ 1 nM | 2.2 nM |

Source: US20140120087A1, “TRIAZOLOPYRIDINES” (BAYER INTELLECTUAL PROPERTY GMBH, priority 2011, published 2014)
